In ChEMBL document CHEMBL5360672, “Identification of Novel Dual-Target Estrogen Receptor α Degraders with Tubulin Inhibitory Activity for the Treatment of Endocrine-Resistant Breast Cancer” (J Med Chem, 2023):
Calls of active or inactive are those of the source. The rule behind the calls is not given here.

Tests used:
[1] = molecular target: T1, Estrogen receptor (Homo sapiens) (UniProt P03372); test: Binding affinity to human ERalpha assessed as relative binding affinity incubated under vibration for 1 min followed by 2 hrs incubation under dark condition by fluorescence polarization assay relative to estradiol; conditions: time 121.0 min
T1 sequence (whole entry): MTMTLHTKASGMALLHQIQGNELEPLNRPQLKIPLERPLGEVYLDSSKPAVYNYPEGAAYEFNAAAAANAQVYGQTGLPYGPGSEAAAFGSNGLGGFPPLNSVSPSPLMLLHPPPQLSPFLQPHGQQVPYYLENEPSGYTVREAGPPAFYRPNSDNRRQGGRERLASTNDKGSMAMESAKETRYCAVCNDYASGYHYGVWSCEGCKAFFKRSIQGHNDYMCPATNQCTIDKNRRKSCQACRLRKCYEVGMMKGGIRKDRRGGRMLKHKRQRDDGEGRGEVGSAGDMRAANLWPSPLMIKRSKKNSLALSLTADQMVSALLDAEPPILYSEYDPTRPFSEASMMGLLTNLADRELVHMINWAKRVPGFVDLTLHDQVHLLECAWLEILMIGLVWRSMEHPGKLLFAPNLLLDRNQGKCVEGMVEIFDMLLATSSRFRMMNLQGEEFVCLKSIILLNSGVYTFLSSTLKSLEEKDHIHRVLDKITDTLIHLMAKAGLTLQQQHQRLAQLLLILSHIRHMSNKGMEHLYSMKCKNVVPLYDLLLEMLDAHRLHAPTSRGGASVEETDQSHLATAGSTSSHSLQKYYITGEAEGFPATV

[2] = molecular target: Estrogen receptor beta (Homo sapiens) (UniProt Q92731); test: Binding affinity to human ERbeta assessed as relative binding affinity incubated under vibration for 1 min followed by 2 hrs incubation under dark condition by fluorescence polarization assay relative to estradiol; conditions: time 121.0 min
Chain of Estrogen receptor beta (Homo sapiens) (Q92731 whole entry): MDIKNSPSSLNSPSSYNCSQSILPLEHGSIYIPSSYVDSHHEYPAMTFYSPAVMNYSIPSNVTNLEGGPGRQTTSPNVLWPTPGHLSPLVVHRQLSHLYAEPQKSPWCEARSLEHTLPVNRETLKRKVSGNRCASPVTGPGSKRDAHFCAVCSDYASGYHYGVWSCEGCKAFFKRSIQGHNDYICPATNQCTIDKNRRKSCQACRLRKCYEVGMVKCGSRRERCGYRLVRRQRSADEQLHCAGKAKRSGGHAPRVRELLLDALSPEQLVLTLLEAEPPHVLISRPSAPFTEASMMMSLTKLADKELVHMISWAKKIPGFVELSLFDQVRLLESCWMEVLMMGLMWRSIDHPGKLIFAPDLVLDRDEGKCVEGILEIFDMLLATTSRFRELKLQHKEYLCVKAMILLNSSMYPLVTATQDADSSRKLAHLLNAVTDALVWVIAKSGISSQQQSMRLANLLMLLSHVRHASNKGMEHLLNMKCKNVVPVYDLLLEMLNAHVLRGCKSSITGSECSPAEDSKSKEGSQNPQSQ

Homo sapiens = species on record: Homo sapiens; test: Selectivity ratio of relative binding affinity for human ERalpha to relative binding affinity to human ERbeta
MCF7 = test: Antiproliferative activity against ERalpha positive human MCF7 cells assessed as inhibition of cell proliferation incubated for 72 hrs by CCK8 assay; format: functional, cell-based; conditions: MCF7, 72 h
T47D [3] = test: Antiproliferative activity against ERalpha positive human T47D cells assessed as inhibition of cell proliferation incubated for 72 hrs by CCK8 assay; format: functional, cell-based
[4] = Cytotoxicity against human MCF-10A cells assessed as inhibition of cell proliferation incubated for 72 hrs by CCK8 assay; format: toxicity, cell-based
[5] = Selectivity index, ratio of IC50 for cytotoxicity against human MCF-10A cells to IC50 for antiproliferative activity against human MCF7 cells; format: toxicity, cell-based; conditions: MCF-10A cells and MCF7 cells, read-out: Ratio IC50
[6] = Antiproliferative activity against human Tamoxifen-resistant LCC2 cells assessed as inhibition of cell proliferation incubated for 72 hrs by CCK8 assay; format: functional, cell-based
T47D [7] = test: Antiproliferative activity against human T47D cells harboring ERalpha D538G mutant assessed as inhibition of cell proliferation incubated for 72 hrs by CCK8 assay; format: functional, cell-based
T47D [8] = test: Antiproliferative activity against human T47D cells harboring ERalpha Y537S mutant assessed as inhibition of cell proliferation incubated for 72 hrs by CCK8 assay; format: functional, cell-based
[9] = molecular target: T1, Estrogen receptor (Homo sapiens); test: Induction of ERalpha degradation in human MCF7 cells at 5 uM incubated for 24 hrs by Western blot analysis relative to SeCN-OBHSA derivatives; format: cell-based

RBA [1] [%] | RBA [2] [%] | Selectivity ratio (Homo sapiens) | IC50 (MCF7) [µM] | IC50 (T47D [3]) [µM] | IC50 (T47D [7]) [µM] | IC50 (T47D [8]) [µM] | Activity [9] | SMILES | IC50 at 72 h [4] [µM] | selectivity ratio [5] | IC50 [6] [µM]
0.39 | 0.03 | 13 | 1.89 | 27.7 | 17.4 | 18.9 | Active | N#C[Se]CCCCCC(=O)Nc1ccc(C2=C(c3ccc(O)cc3)C3CC(S(=O)(=O)N(CC(F)(F)F)c4ccccc4)C2O3)cc1 (configuration not stated) | 57.6 | 30.5 | 20.2
11.2 | 0.07 | 159 | 0.25 | 3.84 | 2.43 | 2.74 | Active | CCN(c1ccc(F)cc1)S(=O)(=O)C1CC2OC1C(c1ccc(NC(=O)CCCCC[Se]C#N)cc1)=C2c1ccc(O)cc1 (configuration not stated) | 18.1 | 72.2 | 2.64
2.31 | 0.06 | 38.5 | 0.44 | 5.66 | 6.76 | 4.51 | Active | CCN(c1ccc(Cl)cc1)S(=O)(=O)C1CC2OC1C(c1ccc(NC(=O)CCCCC[Se]C#N)cc1)=C2c1ccc(O)cc1 (configuration not stated) | 29.2 | 66.3 | 4
7.3 | 0.01 | 730 | 0.33 | 6.66 | 4.76 | 4.92 | Active | CCN(c1ccc(OC)cc1)S(=O)(=O)C1CC2OC1C(c1ccc(NC(=O)CCCCC[Se]C#N)cc1)=C2c1ccc(O)cc1 (configuration not stated) | 37.9 | 115 | 5.8
0.46 | 0.38 | 1.21 | 2.95 | 19.9 | 17.2 | 11.7 | Active | COc1ccc(N(CC(F)(F)F)S(=O)(=O)C2CC3OC2C(c2ccc(NC(=O)CCC[Se]C#N)cc2)=C3c2ccc(O)cc2)cc1 (configuration not stated) | > 100 | > 33.9 | 10.1
1.44 | 0.13 | 11.1 | 0.47 | 9.62 | 5.16 | 4.58 | Active | COc1cccc(N(CC(F)(F)F)S(=O)(=O)C2CC3OC2C(c2ccc(NC(=O)CCCCC[Se]C#N)cc2)=C3c2ccc(O)cc2)c1 (configuration not stated) | 26.9 | 57.1 | 6.73
0.76 | 0.09 | 8.44 | 0.44 | 20.2 | 12.7 | 6.27 | Active | COc1ccc(N(CC(F)(F)F)S(=O)(=O)C2CC3OC2C(c2ccc(NC(=O)CCCCCCC[Se]C#N)cc2)=C3c2ccc(O)cc2)cc1 (configuration not stated) | 38.2 | 86.8 | 10.3
0.51 | 0.2 | 2.55 | 2.81 | 14.2 | 19.8 | 9.25 | Active | CCN(c1cccc(OC)c1)S(=O)(=O)C1CC2OC1C(c1ccc(NC(=O)CCCCC[Se]C#N)cc1)=C2c1ccc(O)cc1 (configuration not stated) | 91.5 | 32.5 | 13.3
2.61 | 0.1 | 26.1 | 0.66 | 18 | 7.35 | 7.01 | Active | CCN(c1ccc(OC)cc1)S(=O)(=O)C1CC2OC1C(c1ccc(NC(=O)CCCCCCC[Se]C#N)cc1)=C2c1ccc(O)cc1 (configuration not stated) | 29.8 | 45.1 | 13.4
4.64 | 0.1 | 46.4 | 0.31 | 2.87 | 2.86 | 3.38 | Active | N#C[Se]CCCCCC(=O)Nc1ccc(C2=C(c3ccc(O)cc3)C3CC(S(=O)(=O)N(CC(F)(F)F)c4cccc(F)c4)C2O3)cc1 (configuration not stated) | 4.74 | 15.3 | 1.97
2.82 | 0.03 | 94 | 0.42 | 3.93 | 5.52 | 3.69 | Active | CCN(c1ccccc1OC)S(=O)(=O)C1CC2OC1C(c1ccc(NC(=O)CCCCC[Se]C#N)cc1)=C2c1ccc(O)cc1 (configuration not stated) | 15.9 | 37.9 | 6.56
0.79 | 0.03 | 26.3 | 0.36 | 3.39 | 2.37 | 2.39 | Active | CCN(c1cccc(F)c1)S(=O)(=O)C1CC2OC1C(c1ccc(NC(=O)CCCCC[Se]C#N)cc1)=C2c1ccc(O)cc1 (configuration not stated) | 11 | 30.6 | 2.51
1.07 | 0.17 | 6.29 | 1.63 | 7.44 | 8.97 | 6.69 | Active | CCN(c1ccc(OC)cc1)S(=O)(=O)C1CC2OC1C(c1ccc(NC(=O)CCC[Se]C#N)cc1)=C2c1ccc(O)cc1 (configuration not stated) | > 100 | > 61.4 | 17.4
2.31 | 0.05 | 46.2 | 0.25 | 5.3 | 3.96 | 3.06 | Active | COc1ccc(N(CC(F)(F)F)S(=O)(=O)C2CC3OC2C(c2ccc(NC(=O)CCCCC[Se]C#N)cc2)=C3c2ccc(O)cc2)cc1 (configuration not stated) | 36.7 | 147 | 3.73
5.56 | 0.09 | 61.8 | 0.28 | 3.83 | 1.91 | 3.03 | Active | CCN(c1cccc(Cl)c1)S(=O)(=O)C1CC2OC1C(c1ccc(NC(=O)CCCCC[Se]C#N)cc1)=C2c1ccc(O)cc1 (configuration not stated) | 9.23 | 33 | 2.61
4.4 | 0.06 | 73.3 | 1.09 | 4.26 | 3.42 | 3.76 | Active | N#C[Se]CCCCCC(=O)Nc1ccc(C2=C(c3ccc(O)cc3)C3CC(S(=O)(=O)N(CC(F)(F)F)c4cccc(Cl)c4)C2O3)cc1 (configuration not stated) | 49.1 | 45 | 3.96
2.69 | 0.09 | 29.9 | 0.16 | 3.11 | 2.37 | 2.18 | Active | CCN(c1ccccc1Cl)S(=O)(=O)C1CC2OC1C(c1ccc(NC(=O)CCCCC[Se]C#N)cc1)=C2c1ccc(O)cc1 (configuration not stated) | 17.3 | 108 | 2.17
